The test system of data set [1] is neutrophil elastase. Kind of data set: Previous intratracheal study in the LPS/fMLP rat model. The class given is in vivo. The note with it: intratracheal doses of 0.03 to 3 mg/kg. From the text:
The doses of fMLP and the time points were chosen based upon published data (see e.g. S. Yasui, A. Nagai, K. Aoshiba et al., Eur. Respir. J., 1995, 8, 1293; T. Yang, J. Zhang, K. Sun et al., Inflamm. Res. 2012, 61, 563; R. Corteling, D. Wyss, A. Trifilieff, BMC Pharmacology, 2002, 2, 1) and experience at Envigo CRS Limited. The dose selection of the drug was based on a previous intratracheal study at Envigo CRS Limited.

In data set [2] the test system is cynomolgus monkeys. Kind of data set: GLP-compliant 28-day inhalation toxicity study in monkeys. The class given is in vivo, cynomolgus monkey. The protocol: In a GLP-compliant 28-day inhalation toxicity study in cynomolgus monkeys, conducted by Charles River Laboratories Preclinical Services, Tranent, Edinburgh, UK, the formulation described in Example 2 and dilutions thereof as well as the vehicle were administered using the Pari eFlow® XL 30 nebulizer device (Pari Pharma, Starnberg, Germany) with an oro-nasal inhalation mask for 60 min per day for 28 days, followed by a 2-week recovery period. […] In total five males and five females were used for each dose of the toxicity study including recovery. Parameters assessed included clinical signs, body weights, electrocardiology, ophthalmic examination, clinical pathology, toxicokinetic parameters in the plasma, gross necropsy findings, organ weights and histopathologic examinations.

Data set [3] has as its target T1, human neutrophil elastase (Homo sapiens, UniProt P08246).
T1 construct: from tissue; host or cells: spontaneous sputum of patients with cystic fibrosis (PBS-soluble fraction)
T1 sequence (P08246 30-247 limits assumed): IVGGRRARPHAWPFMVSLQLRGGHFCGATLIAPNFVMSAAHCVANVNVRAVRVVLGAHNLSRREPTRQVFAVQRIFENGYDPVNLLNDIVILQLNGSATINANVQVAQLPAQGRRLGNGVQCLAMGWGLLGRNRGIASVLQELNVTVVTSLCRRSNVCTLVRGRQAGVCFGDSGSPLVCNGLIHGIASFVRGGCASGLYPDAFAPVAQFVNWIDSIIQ
Kind of data set: Phase-1b study, active neutrophil elastase in sputum by FRET elastase assay. The class given is in vivo. The note with it: CF patients; response appeared independent of dose; returned to baseline at 24 h. Here is the method:
The pharmacodynamic effect of ascending single doses of active compound was investigated by evaluation of neutrophil elastase (NE) activity in sputum using FRET (fluorescence resonance energy transfer) assay after PBS aliquotation and freezing.
On the day of screening, if possible, for baseline assessment of NE activity, on Day −1 as soon as possible after the subject's arrival at the study site for baseline assessment of NE activity, on Day 1 in the period of time between 1 h and 3 h after start of inhalation, and in the morning of Day 2, at approx. 24 h after start of inhalation.
For evaluation of NE activity in sputum, at first, the weight of the sputum sample was determined and 8 mL cold phosphate-buffered saline (PBS) per gram purified sputum was added. […]
The NE activity in sputum was evaluated by using a FRET elastase assay adapted from an assay described in Nature Protocols, 2008, 3, 991 (B. Korkmaz, S. Attucci, M. A. Juliano et al.) and validated by MLM Medical Labs GmbH, Mönchengladbach, Germany.
The assay is based on the reaction of human neutrophil elastase with the substrate 2Abz-Ala-Pro-Glu-Glu-Ile-Met-Arg-Arg-Gln-Tyr(3NO2)—OH (GeneCust Europe S.A., Ellange, Luxembourg, #P160301-SY452824). […] The product of the reaction is detected through fluorescence measurement and the initial reaction velocity is determined. […]

Non-standard residues stand in square brackets, D forms with d. Residues, ends and D or L forms follow the SMILES beside them. Gly(octyl) = CCCCCCCC[C@H](N)C(=O)O

With `CCCCCCCC[C@@H]1NC(=O)[C@@H]2CCCN2C(=O)[C@H]2CCCN2C(=O)[C@H](Cc2ccc(O)cc2)NC(=O)[C@H](CCCCN)NC(=O)[C@H](CCC(N)=O)NC(=O)[C@@H]2CCCN2C(=O)[C@@H]2CCCN2C(=O)[C@H]([C@@H](C)CC)NC(=O)[C@H](CO)NC(=O)[C@H](C)NC(=O)[C@H]([C@@H](C)O)NC(=O)[C@H](CCC(=O)O)NC1=O` [cyclo(-OctG-Glu-Thr-Ala-Ser-Ile-Pro-Pro-Gln-Lys-Tyr-^DPro-Pro-)] (cyclo([Gly(octyl)]ETASIPPQKY[dP]P)), the “efficacy in LPS/fMLP animal model” value in data set [1] is listed as “efficacious”. Further, in data set [2] (cynomolgus monkey, in vivo), the histopathologic findings result was “increased numbers of alveolar macrophages, perivascular/peribronchiolar infiltrates, and granular eosinophilic deposits in the lung and lymphoid hyperplasia in the tracheobronchial lymph nodes”. Further, in data set [2] (monkey, 11.2, 30.1 and 112 mg/kg/day), the “body weight, clinical signs, ophthalmic, electrocardiographic findings, urinary parameters” value is reported as “no body weight changes, clinical signs, ophthalmic or electrocardiographic findings or changes in urinary parameters attributable to drug treatment”. In data set [3], the “mean concentration of active NE in sputum after single-dose inhalation” value was “strongly decreased”.
